# According to patent US7981882B2, “6-N-linked heterocycle-substituted 2,3,4,5-tetrahydro-1H-benzo[d]azepines as 5-HT2C receptor agonists” (Eli Lilly and Company, priority 2005, dated 2011):
# What was measured:
# male NIH Swiss mice [1] = conditions: cited from earlier work
# Wistar rats [2] = conditions: cited from earlier work
# male NIH Swiss mice [3] = assay: Nestlet shredding; type: in vivo, mouse; conditions: 30 min test
# Source text: Mice naturally will construct nests of material available in their living environment. Since this behavior is obsessive in nature, it has been used to model OCD (Xia Li, Denise Morrow and Jeffrey M. Witkin, “Decreases in nestlet shredding of mice by serotonin uptake inhibitors: comparison with marble burying”, Psychopharmacology, submitted Jul. 14, 2003). House experimentally-naïve male, NIH Swiss mice (Harlan Sprague-Dawley, Indianapolis, Ind.) weighing between 28-35 g in groups of 12 for at least three days prior to testing in a vivarium with a 12 h light/dark cycle. Conduct experiments during the light cycle in an experimental room with normal overhead fluorescent lighting. Dose mice with vehicle or test compound and after a specified pretreatment interval (generally 30 min.), place the mice individually in a 17×28×12 cm high plastic tub with about 5 mm sawdust shavings on the floor along with a pre-weighed multi-ply gauze pad (51 mm square). After 30 min., weigh the remainder of the gauze pad not removed by the mouse. Determine the weight of the gauze used for nestlet construction by subtraction. Compare the results for test compound treated mice to the results for vehicle control treated mice with Dunnett's test.
# Clinically effective OCD treatment standard compounds suppress nestlet shredding at doses that are devoid of motor-impairing effects as measured by the rotorod test. […]
# Wistar rats [4] = assay: Schedule-induced polydipsia; type: in vivo, rat
# Source text: Schedule-Induced Polydipsia
# Food-deprived rats exposed to intermittent presentations of food will drink amounts of water that are far in excess of their normal daily intake and in excess of their intake when given all of their food at one time (Falk J L. “Production of polydipsia in normal rats by an intermittent food schedule”, Science 133: 195-196, (1961)). This excessive behavior is persistent and has been used to model OCD.
# Maintain Wistar rats on a food restricted diet (to maintain 85% free feeding weight), but with free access to water. Train the rats in a behavioral testing chamber to press a lever to receive a food pellet under a fixed interval schedule, such that the rats are rewarded with a 45 mg food pellet the first time they press a lever after a 120 second interval has elapsed. The fixed interval is then reset to 120 seconds and the process repeated. Thus, during a 90 min. test session, the rats can earn a maximum of 45 pellets. The behavioral chamber is also equipped with a water bottle that is weighed before and after the session to determine the amount of water consumed.
# Administer test compounds on Tuesdays and Fridays. […] Compare the rates of lever pressing and water consumption for each animal's performance during sessions after test compound treatment with that animal's performance during control sessions, expressed as a percent of the control rate. […]
# male NIH Swiss mice [5] = assay: Marble burying assay; type: in vivo, mouse; conditions: 30 min test, rotorod before
# Source text: Marble burying in mice has been used to model anxiety disorders including obsessive-compulsive disorders (OCD) due to ethological study of the behavior (e.g. Gyertyan I. “Analysis of the marble burying response: Marbles serve to measure digging rather than evoke burying”, Behavioural Pharmacology 6: 24-31, (1995)) and due to the pharmacological effects of clinical standards (c.f., Njung'E K. Handley S L. “Evaluation of marble-burying behavior as a model of anxiety”, Pharmacology, Biochemistry & Behavior. 38: 63-67, (1991)); Borsini F., Podhoma J., and Marazziti, D. “Do animal models of anxiety predict anxiolytic effects of antidepressants?”, Psychopharmacology 163: 121-141, (2002)).
# House experimentally-naïve male, NIH Swiss mice (Harlan Sprague-Dawley, Indianapolis, Ind.) weighing between 28-35 g in groups of 12 for at least three days prior to testing in a vivarium with 12 h light and dark cycles. Conduct experiments during the light cycle in a dimly lit experimental testing room. Dose mice with vehicle or test compound and, after a specified pretreatment interval (generally 30 min.), place each mouse individually on a rotorod (Ugo Basile 7650) operating at a speed of 6 revolutions/min. and observe for falling. […]
# Clinically effective standard compounds suppress marble burying at doses that are devoid of motor-impairing effects as measured on the rotorod. […]
smiles,measurement,setting,value
CNCCC(Oc1ccc(C(F)(F)F)cc1)c1ccccc1 (stereo not shown) [fluoxetine],"Marble burying (clinical standards, literature)",male NIH Swiss mice [1],decrease burying
same,Schedule-induced polydipsia (clinically effective OCD treatment standards),Wistar rats [2],"suppress schedule-induced polydipsia without producing notable changes in motor patterns, food intake, or behavior the following day"
CN(C)CCCN1c2ccccc2CCc2ccc(Cl)cc21 [chlomipramine],Schedule-induced polydipsia (clinically effective OCD treatment standards),Wistar rats [2],"suppress schedule-induced polydipsia without producing notable changes in motor patterns, food intake, or behavior the following day"
C[C@H](N)Cc1ccccc1 [d-amphetamine],Nestlet shredding (with motor effects),male NIH Swiss mice [3],decreases nestlet shredding only at doses that produce motoric side effects
same,Suppression of excessive drinking with co-administration of 5-HT2C antagonist,Wistar rats [4],not prevented by the 5HT2C receptor antagonist
same,Schedule-induced polydipsia (excessive drinking),Wistar rats [4]; 90 min session,decreases excessive drinking only at behaviorally stimulating doses
CN(C)CCCN1c2ccccc2Sc2ccc(Cl)cc21 [chlorpromazine],Marble burying behavior (with rotorod performance),male NIH Swiss mice [5],decrease marble burying only at doses that also disrupt rotorod performance
